Experimental data as given in PubChem BioAssay (NCI).
“And” between values parts separate entries of the source, which are not always exact repeats. Equal values may be shown once.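 Five concentrations, 48 hours, 96-well plates. Here, GI50 denotes the concentration required for 50% inhibition of growth. TGI: total growth inhibition.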

Legend:
Test in all cases: DTP human tumour cell line panel, 48 h
[1] = system: KM12 colon
[2] = system: BT-549 breast
[3] = system: HT29 colon
[4] = system: 786-0 renal
[5] = system: SNB-75 CNS
[6] = system: MALME-3M melanoma
[7] = system: COLO 205 colon
[8] = system: OVCAR-8 ovarian
[9] = system: NCI-H23 lung
[10] = system: U251 CNS

| SMILES | GI50 [1] | TGI [1] | GI50 [2] | TGI [2] | GI50 [3] | TGI [3] | GI50 [4] | TGI [4] | GI50 [5] | TGI [5] | GI50 [6] | TGI [6] | GI50 [7] | TGI [7] | TGI [8] | GI50 [9] | TGI [9] | TGI [10] | GI50 [8] | GI50 [10] |
| --- | --- | --- | --- | --- | --- | --- | --- | --- | --- | --- | --- | --- | --- | --- | --- | --- | --- | --- | --- | --- |
| CN1CCN(C2CCN(C(=O)Nc3cc(Oc4ccc(NC(=O)C5(C(=O)Nc6ccc(F)cc6)CC5)c(F)c4)ccn3)CC2)CC1 | 0.292 µM | > 2.52 µM | 1.02 µM | > 2.71 µM | 0.806 µM | > 4.38 µM | 1.67 µM | > 10 µM | 0.365 µM | > 1.97 µM | 0.703 µM | 2.25 µM | 0.977 µM | > 2.19 µM | > 10 µM | 1.23 µM | > 3.42 µM | > 10 µM | – | – |
| CCN1CCN(C(=O)[C@@]2(C)CC[C@]3(C)CC[C@]4(C)C(=CC(=O)[C@@H]5[C@@]6(C)CC[C@H](OC7C[C@@H](O)[C@@H](O)C(C)O7)C(C)(C)[C@@H]6CC[C@]54C)[C@@H]3C2)CC1 (stereo not given in full) | 2.74 µM | 9.95 µM | 5.84 µM | 13 µM | 1.08 µM | 2.59 µM | 0.933 µM | 1.82 µM | 6.39 µM | 12.8 µM | 0.917 µM | 2.05 µM | 9.13 µM | 20.6 µM | 6.82 µM | 2.36 µM | 9.57 µM | 5.68 µM | 1.62 µM | 1.52 µM |
| CC/C=C\C[C@H](O)C/C=C1/C(=O)C(Cl)=C[C@@H]1C/C=C\CCCC(=O)OC | 0.387 µM | 1.14 µM | 0.341 µM | 1.04 µM | 0.406 µM | 1.07 µM | 0.486 µM | 1.56 µM | 1.88 µM | 4.65 µM | 0.451 µM | 1.23 µM | 0.55 µM | 1.69 µM | 0.864 µM | 0.523 µM | 1.97 µM | 1.39 µM | 0.347 µM | 0.339 µM |
| CC1(C)S[C@@H]2[C@H](NC(=O)C3(N)CCCCC3)C(=O)N2[C@H]1C(=O)O | – | > 100 µM | – | > 100 µM | – | > 100 µM | – | > 100 µM | – | > 100 µM | – | > 100 µM | – | > 100 µM | > 100 µM | – | > 100 µM | > 100 µM | – | – |
| C[N+](C)(C)CC1CCCc2ccccc2C1=O (stereo not given) | 5.1 µM | 24.8 µM | – | 33.4 µM | 7.65 µM | 30.7 µM | 8.46 µM | 6.44 µM and 21.7 µM | – | 34.3 µM | – | 12 µM | – | 42.9 µM | 12.4 µM | – | 35 µM | 12.4 µM | 6.14 µM | – |
| Oc1ccc(Nc2ncnc3c2sc2ncccc23)cc1 | 1.73 µM | > 100 µM | 0.0389 µM | > 100 µM | 0.0496 µM | > 100 µM | < 0.01 µM | – | 0.0595 µM | 7.35 µM | 4.93 µM | > 100 µM | 0.0726 µM | – | > 30.9 µM | < 0.01 µM | 9.53 µM | > 100 µM | 0.0261 µM | 0.0262 µM |
| Cn1c(I)c(C#CCO[Si](C)(C)C(C)(C)C)c(=O)[nH]c1=O | 25.9 µM | > 61.2 µM | 16.4 µM | 30.3 µM | 20.9 µM | 39.7 µM | 18.6 µM | 33.2 µM | 16.2 µM | 37.7 µM | 1.78 µM | 3.85 µM | 6.41 µM | 20 µM | 51.7 µM | 19.3 µM | 39.5 µM | 31.9 µM | 22.4 µM | 17.4 µM |
| O=C(/C=C/c1ccccc1)CCC1C(=O)c2ccccc2C1=O | – | > 100 µM | – | > 100 µM | – | > 100 µM | – | > 100 µM | – | > 100 µM | – | > 100 µM | – | > 100 µM | > 100 µM | – | > 100 µM | > 100 µM | – | – |
| COc1ccc(Sc2[nH]c(C(C)=O)c3ccccc23)cc1 | 6.49 µM | 19.7 µM | 3.13 µM | 17.4 µM | 15.4 µM | 30.7 µM | 16.5 µM | 34.8 µM | 10.7 µM | 51.3 µM | 17.8 µM | 51.3 µM | 0.174 µM | 0.398 µM | 36.8 µM | 14.6 µM | 41.5 µM | 25.1 µM | 16.4 µM | 11.9 µM |
| O=C(Nc1ccc(Br)cc1F)c1cc(F)ccc1O | 2.04 µM | 5.45 µM | 0.356 µM | 1.4 µM | 3.19 µM | > 36.7 µM | 2.41 µM | 7.49 µM | 0.225 µM | 2.11 µM | 0.335 µM | 1.53 µM | 2.46 µM | 6.56 µM | 15 µM | 0.386 µM | 3.15 µM | > 100 µM | 1.3 µM | 0.609 µM |
| CNCc1ccccc1-c1csc([C@@H](C)Nc2nc(C)nc3cc(OC)c(OC)cc23)c1 | 3.27 µM | 11.9 µM | 1.76 µM | 3.55 µM | 1.71 µM | 4.33 µM | 1.52 µM | 2.87 µM | 1.33 µM | 2.65 µM | 1.76 µM | 3.28 µM | 1.77 µM | 3.59 µM | 7.65 µM | 2.83 µM | 15.5 µM | 3 µM | 2.29 µM | 1.48 µM |
| C/C=C(\C)C(=O)O[C@H]1C=CC(=O)O[C@H]1CCC(=O)[C@H](C)O | 17.8 µM | 38.8 µM | 19 µM | 36.8 µM | 8.61 µM | 23.5 µM | 14.9 µM | 30.1 µM | 20.4 µM | 41.4 µM | 15.5 µM | 32.1 µM | 6.07 µM | 22.6 µM | 52.8 µM | 20.5 µM | 43.9 µM | 26.4 µM | 20.7 µM | 12.9 µM |
| COc1cc(-c2oc(=O)ccc2C#Cc2ccccn2)cc(OC)c1OC | 0.884 µM | > 100 µM | 4.42 µM | > 100 µM | 0.607 µM | > 21 µM | 4.47 µM | > 100 µM | 1.93 µM | > 29.8 µM | 14.9 µM | > 100 µM | 3.72 µM | > 30.9 µM | > 100 µM | 2.4 µM | > 29.4 µM | > 86 µM | 3.89 µM | 3.51 µM |
